In patent publication US9573967B2, “N-heterocyclic carbene gold complexes with anticancer properties and methods of use thereof” (KING FAHD UNIVERSITY OF PETROLEUM AND MINERALS, priority 2015, dated 2017):

Tests used:
Format in all cases: cell-based
[1] = system: HCT15 (human cancer) cell line; test: In vitro cytotoxicity, MTT assay, HCT15; conditions: for IC50: MTT assay, 24 h incubation with complex, read-out: IC50 values against HCT15 cancer cell line; for IC50 against HCT15 compared with cisplatin: in words
Experimental: (§1) The in vitro cytotoxicity tests were carried out for the gold(I) precursor, labeled as complex 0 and the three synthesized complexes labeled as complex 1, 2 and 3 and compared with cisplatin (standard classical anticancer drug) against three human cancer cell lines, HCT15, HeLa and A549 using MTT assay. The dose dependent cytotoxic effect was obtained by the stipulated increase in concentrations of cisplatin and gold complexes 0-3 against the fixed number of human cancer cells. The IC50 concentration of cisplatin and complexes 0-3 for different human cancer cell lines was obtained from a curve between compound concentration and percentage viability of cells (FIGS. 5-10, Table 6).
(§2) In phase contrast micrographs, a decreasing cell density and deformed cellular morphology could be observed with increasing concentration of complexes 0-3 (FIGS. 11-13). The dose dependent decrease in cell density was further supported by assessment of decreasing percent cell viability in MTT assay (FIGS. 5-10). The IC50 concentrations of gold complexes were calculated from a separate curve between complex concentration and % viability of cells plotted in Microsoft Excel 2007 (graphs not shown) using MTT assay data and explained by logarithmic regression equations (equations not shown).
The metal precursor (complex 0) and the three synthesized compounds 1-3 were evaluated for their in vitro cytotoxic activity against HCT15 (human cancer), HeLa (human cervical cancer) and A549 (human lung carcinoma) cell lines. The cells were seeded at 4×10^3 cells/well in 100 μL DMEM (Dulbecco's Modified Eagle's Medium) containing 10%. FBS (Fetal Bovine Serum) in 96-wells tissue culture plate and incubated for 72 h at 37° C., 5% CO2 in air and 90% relative humidity in CO2 incubator. After incubation, 100 μL of 50, 25, 12.5 and 6.25 μg/mL solutions of complexes (0-3), prepared in DMEM, were added to cells and the cultures were incubated for 24 h. The medium of wells was discarded and 100 μL DMEM containing MTT (3-(4,5-dimethylthiazol-2-yl)-2,5-diphenyltetrazolium bromide) (5 mg/mL) was added to the wells and incubated in CO2 incubator at 37° C. in dark for 4 h. After incubation, a purple colored formazan (artificial chromogenic dye, product of the reduction of water insoluble tetrazolium salts e.g., MMT by dehydrogenases and reductases) in the cells is produced and appeared as dark crystals in the bottom of the wells. The medium of culture was discarded from each well carefully to avoid disruption of monolayer and 100 μl of dimethyl sulfoxide (DMSO) was added in each well. […] The absorbance of the 96-wells plate was taken at 570 nm with Labsystems Multiskan EX-Enzyme-linked immunosorbent assay (EX-ELISA) reader against a reagent blank.

[2] = system: HeLa (human cervical cancer) cell line; test: In vitro cytotoxicity, MTT assay, HeLa; conditions: 24 h incubation with complex, read-out: IC50 values against HeLa cancer cell line
Experimental: as §1
as §2, with “The dose dependent decrease in cell density was further supported by assessment of decreasing percent cell viability in MTT assay (FIGS. 5-10).” left out
(§3) The metal precursor (complex 0) and the three synthesized compounds 1-3 were evaluated for their in vitro cytotoxic activity against HCT15 (human cancer), HeLa (human cervical cancer) and A549 (human lung carcinoma) cell lines. […]

[3] = system: A549 (human lung carcinoma) cell line; test: In vitro cytotoxicity, MTT assay, A549; conditions: 24 h incubation with complex, read-out: IC50 values against A549 cancer cell line
Experimental: as §1
as §2, with “The dose dependent decrease in cell density was further supported by assessment of decreasing percent cell viability in MTT assay (FIGS. 5-10).” left out
as §3

Molecule	IC50 [1]	IC50 [2]	IC50 [3]	IC50 against HCT15 compared with cisplatin [1]
1,3-Bis(2,6-di-isopropylphenyl)imidazol-2-ylidenegold(I)chloride [Complex 0]	122 µM	172 µM	180 µM	–
CCN(CC)C(=S)[S][Au][CH]1N(c2c(C(C)C)cccc2C(C)C)C=CN1c1c(C(C)C)cccc1C(C)C [Complex 2, [Au(Ipr)(S2CN(C2H5)2)]]	–	–	–	moderate potency but better than cisplatin
CC(C)c1cccc(C(C)C)c1N1C=CN(c2c(C(C)C)cccc2C(C)C)[CH]1[Au][S]C(=S)N(Cc1ccccc1)Cc1ccccc1 [Complex 3, [Au(Ipr)(S2CN(C7H7)2)]]	–	–	–	moderate potency but better than cisplatin
N.N.[Cl][Pt][Cl] [Cisplatin, cisplatin]	29.5 µM	–	–	–
